Data set [1] deals with ligand-independent ER mutants. The experiment in a line: AP activity in Ishikawa cells transiently transfected with ER variants. In kind it is cell-based, human. As to conditions: in the absence of E2; 3 days; FIGS. 5A-5F, 8A-8D. As to the method: (§1) The present Example describes studies in which certain estrogen receptor constructs were transfected into Ishikawa cells, which are a human endometrial cancer cell line, endogenous alkaline phosphatase is assayed. 15,000 Ishikawa cells per well were plated into a 96-well plate in […] containing 5% stripped FBS. At the time of plating, cells in each well were transiently transfected with 75-100 ng of an estrogen receptor construct (or empty vector, pSG5) using Lipofectamine LTX (ThermoFisher Scientific). Approximately 4 hours later, cells were treated with indicated amount of anti-estrogen (in the absence of E2), or 500 pM E2 (FIG. 9), and media was diluted to 2.5% stripped FBS. Cells were incubated for 3 days, media removed, and plates frozen at −80° C. […] After 40-80 minutes at 40° C., absorbance was read at 405 nm.

In the next data set the target is T1, endogenous wild type ER (Homo sapiens, UniProt P03372).
T1 construct: AP activity of endogenous wild type ER in un-transfected Ishikawa cells; endogenous in cells; host or cells: Ishikawa cells (un-transfected)
T1 sequence (P03372 1-595): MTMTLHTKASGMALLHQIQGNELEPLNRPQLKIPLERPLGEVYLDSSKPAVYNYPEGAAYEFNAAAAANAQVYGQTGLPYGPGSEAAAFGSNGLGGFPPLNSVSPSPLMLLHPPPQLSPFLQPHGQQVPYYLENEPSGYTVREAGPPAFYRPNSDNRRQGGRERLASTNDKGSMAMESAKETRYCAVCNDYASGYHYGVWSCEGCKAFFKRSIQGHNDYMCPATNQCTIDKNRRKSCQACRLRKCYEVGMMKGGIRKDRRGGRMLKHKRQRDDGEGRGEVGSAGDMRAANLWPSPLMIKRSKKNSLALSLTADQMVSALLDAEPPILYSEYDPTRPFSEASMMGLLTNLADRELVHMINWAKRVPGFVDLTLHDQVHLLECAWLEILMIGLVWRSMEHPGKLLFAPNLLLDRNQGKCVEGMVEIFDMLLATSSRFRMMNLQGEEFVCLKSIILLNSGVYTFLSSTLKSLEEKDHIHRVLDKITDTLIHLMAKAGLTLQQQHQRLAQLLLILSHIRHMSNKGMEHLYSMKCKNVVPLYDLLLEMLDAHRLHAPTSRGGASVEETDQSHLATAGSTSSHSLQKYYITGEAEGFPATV
The experiment in a line: Alkaline phosphatase (AP) activity of endogenous wild type ER in un-transfected Ishikawa cells, agonist and antagonist mode. In kind it is cell-based. Here is the method:
as §1
AP activity of endogenous wild type ER in un-transfected Ishikawa cells was assayed as described above.

The conditions of data set [2]: in vivo, po, 300 mg/kg.

For the compound `CC/C(=C(/c1ccc(/C=C/C(=O)O)cc1)c1ccc2[nH]ncc2c1)c1ccc(F)cc1Cl` [ARN-810, Brilanestrant], in data set [1], the “Inhibition of activity of ligand-independent ER mutants (AP activity)” value (shortened to “Inhibition”) was “none of Endoxifen, RAD-1901, ARN-810 (GDC-0810) or AZD-9496 can inhibit activity of the ligand-independent ER variants”.

`C[C@@H]1Cc2c([nH]c3ccccc23)[C@@H](c2c(F)cc(/C=C/C(=O)O)cc2F)N1CC(C)(C)F` [AZD-9496]: the “Inhibition” value in data set [1] is reported as “none of Endoxifen, RAD-1901, ARN-810 (GDC-0810) or AZD-9496 can inhibit activity of the ligand-independent ER variants”. The “Agonist activity (ER activity, AP)” value at endogenous wild type ER (agonist mode: compound alone, no added estrogen, FIG. 1A) is recorded as “increases ER activity in the absence of added estrogen”. The “Antagonist activity (ER activity, AP)” value on endogenous wild type ER (antagonist mode: in the presence of 500 pM 17β-estradiol (E2), FIG. 1B) is listed as “reducing ER activity when estrogen is there”.

As to `C[C@]12CC[C@@H]3c4ccc(O)cc4C[C@@H](CCCCCCCCC[S+]([O-])CCCC(F)(F)C(F)(F)F)[C@H]3[C@@H]1CC[C@@H]2O` (stereo partly drawn) [Fulvestrant], the “Blood brain barrier penetration” value in data set [2] is recorded as “unable to penetrate the blood-brain barrier in analogous quantities”.

On to `CCNCCc1ccc(CN(CC)c2cc(OC)ccc2[C@@H]2CCc3cc(O)ccc3C2)cc1` [RAD-1901, Elacestrant], for which, in data set [1], the “Inhibition” value is given as “none of Endoxifen, RAD-1901, ARN-810 (GDC-0810) or AZD-9496 can inhibit activity of the ligand-independent ER variants”.

(Values after patent US12370181B2, “Regimens of estrogen receptor antagonists” (Olema Pharmaceuticals, Inc., priority 2019, dated 2025).)
